Test results reported in patent US4455146A, “Novel plasters” (Hisamitsu Pharmaceutical Co., Ltd., priority 1979, dated 1984).

Experiment: clinical
Settings: for Percent absorption / Fa at 4 h / Fa at 8 h: human, in vivo, topical or ocular; for Fa at 4 h / Fa at 8 h: Percent absorption
Description: An experiment was carried out on 7 subjects who were healthy male adults, 25-39 years old and weighing 50-63 kg each, as mentioned hereinbelow.
The plasters and adhesive tapes so attached to the skin sites were peeled 0 hour, 4 hours and 8 hours after the application and then inserted into 15 ml test tubes, respectively, after which the test tubes were each incorporated with 5 ml of acetone, shaken lightly and allowed to stand overnight at room temperature. […] After the distillation-off of an excess of the diazomethane and ether, the residue so methylated was dissolved in 1 ml of a solution of the internal reference substance in acetone and meansured for absorbability and amount absorbed by means of GC-MF under the conditions as shown in Table 10.
The absorbency and amount absorbed were calculated from the following formulae: [formula]

[1] = 1% plaster, […] 1.4 cm, 4 hr, mean ± S.E.
[2] = 1% plaster, […] 1.4 cm, 8 hr, mean ± S.E.
[3] = 3% plaster, […] 1.4 cm, 4 hr, mean ± S.E.
[4] = 3% plaster, […] 1.4 cm, 8 hr, mean ± S.E.

| Amount absorption [1] [µg] | Amount absorption [2] [µg] | Amount absorption [3] [µg] | Amount absorption [4] [µg] | Percent absorption (4 h) [%] | Percent absorption (8 h) [%] | Fa at 4 h [%] | Fa at 8 h [%] | Fa at 4 h [1] [%] | Fa at 8 h [2] [%] | Fa at 4 h [3] [%] | Fa at 8 h [4] [%] | SMILES |
| --- | --- | --- | --- | --- | --- | --- | --- | --- | --- | --- | --- | --- |
| 9.05 | 10.70 ± 1.61 | 41.19 | 49.56 ± 6.92 | 6.98 | 8.40 ± 1.17 | 5.53 | 6.54 ± 0.99 |  |  |  |  | CC(C(=O)O)c1ccc(-c2ccccc2)c(F)c1 (stereo not shown) [Flurbiprofen] |
| 2.30 | 4.92 ± 1.16 | 16.67 | 20.21 ± 2.13 |  |  |  |  | 1.27 | 2.71 ± 0.64 | 3.52 | 4.28 ± 0.45 | COc1ccc2c(c1)c(CC(=O)O)c(C)n2C(=O)c1ccc(Cl)cc1 [Indomethacin] |
